# Data as given in PMC12472577, “Trimetazidine–Profen Hybrid Molecules: Synthesis, Chemical Characterization, and Biological Evaluation of Their Racemates” (Pharmaceuticals, 2025).
# Values joined by “and” are separate entries in the source; they are usually repeats but may differ in a detail not shown here. Equal entries are not always repeated. Where two headings read alike, the source gives them in different places.
# Tests used:
# [1] = Hydrogen peroxide scavenging activity (HPSA); assay type: biochemical; conditions: IC50 ± SD, triplicate; 10 min at 37 °C, pH 7.4
# Procedure: The Manolov et al. approach was used to evaluate a capacity to scavenge hydrogen peroxide. A 43 mM solution of H2O2 was prepared in a potassium phosphate buffer solution (0.2 M, pH 7.4). The analysis of the samples was carried out as follows: in test tubes, 0.6 mL H2O2 (43 mM), 1 mL sample/standard with different concentrations (20–1000 µg/mL), and 2.4 mL potassium phosphate buffer solution were mixed. The mixture was stirred and incubated in the dark for 10 min at 37 °C. Absorbance was measured at 230 nm with a spectrophotometer (CamSpec M508, Leeds, UK) against a blank solution containing the phosphate buffer and H2O2 without the sample. […] The percentage HPSA of the samples was evaluated by comparing with a blank sample, and was calculated using the following formula:(1) I,%(HPSA)=Ablank−(ATS−ACS)/Ablank×100 where Ablank is the absorbance of the blank sample, ACS is the absorbance of the control sample, and ATS is the absorbance of the test sample.
# [2] = Hydroxyl radical scavenging activity (HRSA), Fenton reaction / 1,10-phenanthroline; assay type: biochemical; conditions: IC50 ± SD, triplicate; 60 min at 37 °C, pH 7.40
# Procedure: The hydroxyl radical-scavenging activity of the samples was measured according to the method of Luo et al.. In this system, hydroxyl radicals were generated by the Fenton reaction. Hydroxyl radicals could oxidize Fe^2+ into Fe^3+, and only Fe^2+ could be combined with 1,10-phenanthroline to form a red compound (1,10-phenanthroline-Fe^2+) with a maximum absorbance at 536 nm. The concentration of the hydroxyl radical was reflected by the degree of decolorization of the reaction solution. In test tubes 1 mL of 1,10-phenanthroline solution (0.75 mM), 2.0 mL of phosphate buffer saline (0.2 M, pH 7.40), and 1 mL of the samples/standard were added and mixed homogeneously. A total of 1.0 mL of the FeSO4 solution (0.75 mM) was then pipetted into the mixture. The reaction was initiated by adding 1.0 mL H2O2 (0.03% v/v). After incubation at 37°C for 60 min in a water bath, the absorbance of the reaction mixture was measured at 536 nm against reagent blank. The reaction mixture without any antioxidant was used as the negative control, and without H2O2 was used as the blank. The hydroxyl radical scavenging activity (HRSA) was calculated by the following formula:(2) I,%(HRSA)=AS−An/Ab−An×100 where As, An, and Ab were the absorbance values determined at 536 nm of the sample, the negative control, and the blank after reaction, respectively.
# human albumin = target: T1, human albumin (Homo sapiens, UniProt P02768); assay: Inhibition of albumin denaturation (IAD); assay type: biochemical
# T1 construct: purchased BB-NCIPD Ltd., Sofia, Bulgaria
# Procedure: The in vitro analysis of the anti-inflammatory activity was evaluated by measuring the inhibition of albumin denaturation (IAD). The analysis was carried out according to the method of Manolov et al. with minor modifications. The experiment was conducted using human albumin. A 1% albumin solution was prepared in distilled water at pH 7.4. Test samples and standards were initially dissolved in 1 mL of DMSO, then supplemented with 1% Tween 80 in PBS to achieve a final stock solution concentration of 1000 μg/mL. Subsequently, a series of working solutions at varying concentrations (20–500 μg/mL) in 1% Tween 80/PBS were prepared. The reaction mixture consisted of 2 mL of the test sample or standard at varying concentrations and 1 mL of 1% albumin. The mixture was incubated at 37 °C for 15 min, followed by heating at 70 °C for 15 min in a water bath. After cooling, the turbidity was measured at 660 nm using a spectrophotometer (CamSpec M508, Leeds, UK). Ibuprofen served as the standard. The experiment was conducted in triplicate. The percentage inhibition of albumin denaturation (IAD) was calculated against the control. The control sample consisted of albumin at the same concentration dissolved in distilled water.(3) %IAD=Ablank−Asample/Ablank×100
# [3] = Lipophilicity as RM values by reversed-phase thin-layer chromatography (RP-TLC); assay type: physicochemical
# Procedure: In this study, the lipophilicity of the synthesized trimetazidine–profen derivatives was evaluated using a practical and widely applied technique—reversed-phase thin-layer chromatography (RP-TLC)—following the methodology outlined by Pontiki and Hadjipavlou-Litina.
# The lipophilicity of the trimetazidine–profen derivatives was determined following the procedure described by Pontiki and Hadjipavlou-Litina.
# [4] = Acute rat toxicity prediction using GUSAR software
# Text: Given the potential toxicity concerns associated with both trimetazidine and profens, including rare gastrointestinal, hepatic, renal, and central nervous system effects, we evaluated the acute toxicity of the newly synthesized trimetazidine–profen hybrid molecules.
# GUSAR software was developed to generate QSAR/QSPR models using appropriate training datasets. It enables an in silico prediction of LD50 values in rats for four routes of administration: oral, intravenous, intraperitoneal, and subcutaneous.
# We employed the software to perform quantitative in silico predictions of the LD50 values for the synthesized trimetazidine–profen hybrids 3a–e.
# [5] = composite across IP, IV, oral, SC GUSAR predictions, lower = more toxic, read-out: geometric mean of the four LD50 values
# T1 sequence (P02768 25-609): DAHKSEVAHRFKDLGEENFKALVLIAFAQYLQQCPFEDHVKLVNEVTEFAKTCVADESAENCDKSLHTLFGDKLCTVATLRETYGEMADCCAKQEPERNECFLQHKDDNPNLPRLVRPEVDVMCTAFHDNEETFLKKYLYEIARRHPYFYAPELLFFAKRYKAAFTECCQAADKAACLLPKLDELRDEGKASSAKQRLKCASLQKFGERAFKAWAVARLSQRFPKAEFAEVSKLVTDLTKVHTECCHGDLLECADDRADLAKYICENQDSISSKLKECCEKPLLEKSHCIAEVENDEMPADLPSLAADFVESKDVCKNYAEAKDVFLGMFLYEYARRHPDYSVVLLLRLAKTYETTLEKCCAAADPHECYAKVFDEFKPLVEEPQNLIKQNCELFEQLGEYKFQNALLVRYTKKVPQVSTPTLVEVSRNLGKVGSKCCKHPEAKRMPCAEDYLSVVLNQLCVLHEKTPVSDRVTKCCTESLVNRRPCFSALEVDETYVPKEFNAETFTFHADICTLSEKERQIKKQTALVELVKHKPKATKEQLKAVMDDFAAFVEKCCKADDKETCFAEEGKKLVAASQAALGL
SMILES,HPSA IC50 [1] [µg/mL],HRSA IC50 [2],IC50 (human albumin) [µM],RM ± SD [3],"LD50 [4, 5] [mg/kg]",LD50 [4] [mg/kg]
"COc1ccc(CN2CCN(C(=O)C(C)c3ccc(CC(C)C)cc3)CC2)c(OC)c1OC (stereo not drawn) [3a, 2-(4-isobutylphenyl)-1-(4-(2,3,4-trimethoxybenzyl)piperazin-1-yl)propan-1-one]",97.55 ± 1.21,77.98 µg/mL,244,1.68 ± 0.021 and 1.68,~212,
"COc1ccc(CN2CCN(C(=O)C(C)c3cccc(C(=O)c4ccccc4)c3)CC2)c(OC)c1OC (stereo not drawn) [3b, 2-(3-benzoylphenyl)-1-(4-(2,3,4-trimethoxybenzyl)piperazin-1-yl)propan-1-one]",93.56 ± 1.29,74.72 ± 0.41 µg/mL and 74.6 to 74.7 µg/mL,234,1.55 ± 0.015 and 1.55,~398,
"COc1ccc2cc(C(C)C(=O)N3CCN(Cc4ccc(OC)c(OC)c4OC)CC3)ccc2c1 (stereo not drawn) [3c, 2-(6-methoxynaphthalen-2-yl)-1-(4-(2,3,4-trimethoxybenzyl)piperazin-1-yl)propan-1-one]",93.07 ± 0.43,71.13 µg/mL,227,1.61 ± 0.020 and 1.61,~391,
"COc1ccc(CN2CCN(C(=O)C(C)c3ccc(-c4ccccc4)c(F)c3)CC2)c(OC)c1OC (stereo not drawn) [3d, 2-(2-fluoro-[1,1’-biphenyl]-4-yl)-1-(4-(2,3,4-trimethoxybenzyl)piperazin-1-yl)propan-1-one]",135.25 ± 13.19,74.59 ± 1.02 µg/mL and 74.6 to 74.7 µg/mL,235,1.45 ± 0.008 and 1.45,~287,
"COc1ccc(CN2CCN(C(=O)C(C)c3ccc4c(c3)[nH]c3ccc(Cl)cc34)CC2)c(OC)c1OC (stereo not drawn) [3e, 2-(6-chloro-9H-carbazol-2-yl)-1-(4-(2,3,4-trimethoxybenzyl)piperazin-1-yl)propan-1-one]",99.75 ± 0.75,92.56 µg/mL,225,1.55 ± 0.016 and 1.55,~369,
"CC(C)Cc1ccc(C(C)C(=O)O)cc1 (stereo not drawn) [Ibuprofen, reference compound]",,,,1.11 ± 0.01,,
"COc1ccc(CN2CCNCC2)c(OC)c1OC [compound 1, 1-[(2,3,4-trimethoxyphenyl)methyl]piperazine, reference compound]",,,,,,~246
